Laboratory results published in patent publication US20030022923A1, “Methods for treatment of sickle cell anemia” (Medinox, Inc., priority 2001, published 2003).

Key:
[1] = Pharmacokinetic study of vanillin-thiazolidine adduct and vanillin by oral administration in rats (vanillin in blood by HPLC); assay type: in vivo, Sprague-Dawley rats; conditions: oral gavage, blood concentration-time curves 2-180 min
Description: Sixteen Sprague-Dawley rats (male, 200-300 g) were catheterized at the carotid at least 12 hours before drug administration and the catheter was flushed with heparin solution to prevent line clotting. […] Blood samples were collected by unhooking the flush syringe and letting the blood flow freely into centrifuge tubes at predetermined time points, i.e., 2, 5, 10, 15, 30, 45, 60, 90, 120 and 180 minutes after gavage. To each 100 μl of blood sample was added 400 μl of perchloric acid in a centrifuge tube. After vigorously vortexing, the samples in centrifuge tubes were spun down at 13,000 rpm for 10 min.
A striking difference was noted between the pharmacokinetic profiles of vanillin-thiazolidine and of unmodified vanillin.
Noncompartmental pharmacokinetic analysis was then carried out using WinNolin (Pharsight Inc., Mountain View, Calif.) and the results are summarized in Table 1, below. […] The maximum concentration at 2 minutes (Cmax) was also approximately 4 times higher in the former compared to the latter.

[2] = cited from earlier work
hemoglobin S = hemoglobin S (Homo sapiens, UniProt P68871+P69905, E7V); conditions: in solution and in intact red cells; cited from earlier work
[3] = orally administered; extensive metabolism in the intestines and liver; cited from earlier work
[4] = Hydrophobicity compared with vanillin; assay type: physicochemical
Excerpt: It is well known that vanillin can be extensively metabolized by intestinal bacteria and the liver (Strand and Scheline, supra). It is likely that the vanillin-derived thiazolidine is not easily metabolized by the same routes.

hydrophobicity relative to vanillin [4]	SMILES	vanillin levels in the blood and half-life (FIG. 1 profile, in words) [1]	body and organ weights, hemotology, histopathology, test vs control rats ([2]; 1.0% of the diet for 16 weeks, 2.0% and 5.0% for 1 year, or 0.5%, 1.0% and 2.0% for 2 years)	toxicity on extended feeding ([2]; rats, vanillin at high levels for extensive periods)	oxygen affinity of hemoglobin S (hemoglobin S)	oral bioavailability [3]
–	COc1cc(C=O)ccc1O [Vanillin, 4-hydroxy-3-methoxybenzaldehyde]	low with a short half-life	no significant differences	No toxicity was observed	marked increase in oxygen affinity	poorly bioavailable
more hydrophobic than vanillin	CCOC(=O)C1CSC(c2ccc(O)c(OC)c2)N1 (stereo not shown) [Vanillin-Thiazolidine Adduct, Ethyl 2-(4-hydroxy-3-methoxyphenyl)-1,3-thiazolidine-4-carboxylate]	higher, with a much longer half-life	–	–	–	–
